Experimental findings from US6723726B1 (SmithKline Beecham Corporation, priority 1996, dated 2004) are described below.

For one assay, the system named is HB4a ras cells. As to the kind of experiment: Cell proliferation assay, HB4a transfected with ras (general toxicity comparison). Format: cell-based, human. The note with it: read-out: Cell Proliferation HB4a ras IC50. As to the method:
(§1) The cell proliferation assay uses an immortalised human breast epithelial cell line (HB4a) which has been transformed by over-expression of c-erbB-2. Growth of these cells in low serum is dependent upon the c-erbB-2 tyrosine kinase activity. The specificity of the effect of the test compounds on tyrosine kinase dependent growth over general toxicity is assessed by comparison to an HB4a cell line which has been transfected with ras. Cells are plated at 3000/well in 96-well plates in 0.1 ml medium and allowed to attach overnight, test compound is added in 0.1 ml medium, with a final concentration of 0.5% DMSO, and the plates incubated for 4 days at 37° C. The cells are then examined microscopically for evidence of morphological detransformation and cell mass is estimated by staining with methylene blue and measuring the absorbance at 620 nm. The results are shown in Table 1 below as the IC50 values in nM. Activity against a range of naturally occurring EGFr or c-erbB-2 over-expressing human tumour cell lines (BT474-breast, HN5-head and neck, N87-gastric and Calu3-lung) is assessed with selected compounds by the same methodology. The results are also shown in Table 1 below as the IC50 values in nM.

The next assay deals with N87 cells. As to the kind of experiment: Cell proliferation assay, N87 gastric tumour cell line. The format is cell-based, human. To be noted: read-out: Cell Proliferation N87 IC50. As to the method:
as §1

The next assay concerns BT474 cells. As to the kind of experiment: Cell proliferation assay, BT474 breast tumour cell line. The format is cell-based, human. The note with it: read-out: Cell Proliferation BT474 IC50. As to the method:
as §1

The test system of the next assay is HN5 cells. Nature of the assay: Cell proliferation assay, HN5 head and neck tumour cell line. Format: cell-based. The note with it: Homo sapiens, HN5, 96 h, read-out: Cell Proliferation HN5 IC50. As to the method:
as §1

Assay [1] addresses T1, c-erbB-4 (baculovirus expressed recombinant intracellular domain) (Homo sapiens, UniProt Q15303).
T1 construct: baculovirus expressed, recombinant constructs of the intracellular domains of c-erbB-2 and c-erbB-4 that are constitutively active; made in house
As to the kind of experiment: Substrate phosphorylation assay, c-erbB-4. The format is biochemical. To be noted: ATP and peptide at Km, 30 min, room temperature. As to the method:
(§2) The substrate phosphorylation assays use baculovirus expressed, recombinant constructs of the intracellular domains of c-erbB-2 and c-erbB-4 that are constitutively active and EGFr isolated from solubilised A431 cell membranes. The method measures the ability of the isolated enzymes to catalyse the transfer of the γ-phosphate from ATP onto tyrosine residues in a biotinylated synthetic peptide (Biotin-[…]. […] The reaction is stopped by the addition of EDTA (final concentration 0.15 mM) and a sample is transferred to a streptavidin-coated 96-well plate. The plate is washed and level of phosphotyrosine on the peptide is determined using a Europium-labelled antiphosphotyrosine antibody and quantified with a time-resolved fluorescence technique.

The subject of the next assay is HB4a erbB-2 cells. Nature of the assay: Cell proliferation assay, HB4a transformed by over-expression of c-erbB-2. Format: cell-based, human. The note with it: read-out: Cell Proliferation HB4a erbB-2 IC50. As to the method: as §1
For the next assay, the system named is Calu3 cells. As to the kind of experiment: Cell proliferation assay, Calu3 lung tumour cell line. Format: cell-based, human. The note with it: read-out: Cell Proliferation Calu3 IC50. As to the method: as §1
Assay [2] has as its target T2, c-erbB-2 (baculovirus expressed recombinant intracellular domain) (Homo sapiens, UniProt P04626).
T2 construct: baculovirus expressed, recombinant constructs of the intracellular domains of c-erbB-2 and c-erbB-4 that are constitutively active; made in house
As to the kind of experiment: Substrate phosphorylation assay, c-erbB-2. The format is biochemical. The note with it: ATP and peptide at Km, 30 min, room temperature. As to the method:
as §2

Assay [3] deals with T3, EGFr isolated from solubilised A431 cell membranes (Homo sapiens, UniProt P00533).
T3 construct: EGFr isolated from solubilised A431 cell membranes; endogenous in cells; host or cells: A431 cell membranes (solubilised)
Nature of the assay: Substrate phosphorylation assay, EGFr. Format: biochemical. To be noted: ATP and peptide at Km, 30 min, room temperature. As to the method:
as §2

The mark [4] stands for this setting: Homo sapiens, HB4a, 96 h, 4 days, methylene blue staining.
Setting [5] is: Homo sapiens, Calu-3, 96 h, 4 days, methylene blue staining.
[6] abbreviates: Homo sapiens, BT-474, 96 h, 4 days, methylene blue staining.
Where [7] appears, read: Homo sapiens, 96 h, 4 days, methylene blue staining.
[8] abbreviates: 4 days, methylene blue staining.

Counter-ions that a name gives are not always drawn. Like-named read-outs stand apart in the source and are kept apart here.

T1 sequence (Q15303 676-1308 limits assumed): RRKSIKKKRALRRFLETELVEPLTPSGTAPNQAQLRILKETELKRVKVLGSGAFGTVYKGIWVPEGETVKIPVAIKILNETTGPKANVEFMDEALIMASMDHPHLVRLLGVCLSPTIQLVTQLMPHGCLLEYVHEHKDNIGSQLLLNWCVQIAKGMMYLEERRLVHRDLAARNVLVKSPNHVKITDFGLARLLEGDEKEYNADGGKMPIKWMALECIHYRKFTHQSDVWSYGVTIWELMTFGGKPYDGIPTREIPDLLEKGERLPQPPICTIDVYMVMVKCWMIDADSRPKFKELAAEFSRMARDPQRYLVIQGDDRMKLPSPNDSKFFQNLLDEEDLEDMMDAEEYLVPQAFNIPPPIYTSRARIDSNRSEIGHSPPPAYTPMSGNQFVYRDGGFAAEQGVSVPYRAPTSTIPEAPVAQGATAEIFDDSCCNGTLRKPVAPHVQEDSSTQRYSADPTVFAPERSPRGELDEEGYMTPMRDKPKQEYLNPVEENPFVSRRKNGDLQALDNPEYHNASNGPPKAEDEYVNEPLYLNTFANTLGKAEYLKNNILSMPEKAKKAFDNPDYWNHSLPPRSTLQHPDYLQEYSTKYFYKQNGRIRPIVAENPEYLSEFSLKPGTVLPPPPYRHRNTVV
T2 sequence (P04626 676-1255 limits assumed): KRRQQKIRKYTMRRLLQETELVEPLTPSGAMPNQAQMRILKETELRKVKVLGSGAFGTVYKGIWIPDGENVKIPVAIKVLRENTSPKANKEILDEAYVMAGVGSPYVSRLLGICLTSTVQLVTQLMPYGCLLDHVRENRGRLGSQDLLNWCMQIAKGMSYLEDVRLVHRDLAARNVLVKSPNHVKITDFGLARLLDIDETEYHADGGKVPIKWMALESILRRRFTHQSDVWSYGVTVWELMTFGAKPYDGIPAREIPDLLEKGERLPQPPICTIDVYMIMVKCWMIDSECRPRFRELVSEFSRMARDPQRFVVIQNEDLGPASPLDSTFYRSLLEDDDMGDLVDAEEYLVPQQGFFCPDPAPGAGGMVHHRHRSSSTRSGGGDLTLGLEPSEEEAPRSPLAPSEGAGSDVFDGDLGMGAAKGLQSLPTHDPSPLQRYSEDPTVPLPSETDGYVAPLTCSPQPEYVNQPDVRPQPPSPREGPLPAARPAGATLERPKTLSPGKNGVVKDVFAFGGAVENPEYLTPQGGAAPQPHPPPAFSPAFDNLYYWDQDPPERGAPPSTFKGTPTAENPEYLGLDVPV
T3 sequence (P00533 25-1210): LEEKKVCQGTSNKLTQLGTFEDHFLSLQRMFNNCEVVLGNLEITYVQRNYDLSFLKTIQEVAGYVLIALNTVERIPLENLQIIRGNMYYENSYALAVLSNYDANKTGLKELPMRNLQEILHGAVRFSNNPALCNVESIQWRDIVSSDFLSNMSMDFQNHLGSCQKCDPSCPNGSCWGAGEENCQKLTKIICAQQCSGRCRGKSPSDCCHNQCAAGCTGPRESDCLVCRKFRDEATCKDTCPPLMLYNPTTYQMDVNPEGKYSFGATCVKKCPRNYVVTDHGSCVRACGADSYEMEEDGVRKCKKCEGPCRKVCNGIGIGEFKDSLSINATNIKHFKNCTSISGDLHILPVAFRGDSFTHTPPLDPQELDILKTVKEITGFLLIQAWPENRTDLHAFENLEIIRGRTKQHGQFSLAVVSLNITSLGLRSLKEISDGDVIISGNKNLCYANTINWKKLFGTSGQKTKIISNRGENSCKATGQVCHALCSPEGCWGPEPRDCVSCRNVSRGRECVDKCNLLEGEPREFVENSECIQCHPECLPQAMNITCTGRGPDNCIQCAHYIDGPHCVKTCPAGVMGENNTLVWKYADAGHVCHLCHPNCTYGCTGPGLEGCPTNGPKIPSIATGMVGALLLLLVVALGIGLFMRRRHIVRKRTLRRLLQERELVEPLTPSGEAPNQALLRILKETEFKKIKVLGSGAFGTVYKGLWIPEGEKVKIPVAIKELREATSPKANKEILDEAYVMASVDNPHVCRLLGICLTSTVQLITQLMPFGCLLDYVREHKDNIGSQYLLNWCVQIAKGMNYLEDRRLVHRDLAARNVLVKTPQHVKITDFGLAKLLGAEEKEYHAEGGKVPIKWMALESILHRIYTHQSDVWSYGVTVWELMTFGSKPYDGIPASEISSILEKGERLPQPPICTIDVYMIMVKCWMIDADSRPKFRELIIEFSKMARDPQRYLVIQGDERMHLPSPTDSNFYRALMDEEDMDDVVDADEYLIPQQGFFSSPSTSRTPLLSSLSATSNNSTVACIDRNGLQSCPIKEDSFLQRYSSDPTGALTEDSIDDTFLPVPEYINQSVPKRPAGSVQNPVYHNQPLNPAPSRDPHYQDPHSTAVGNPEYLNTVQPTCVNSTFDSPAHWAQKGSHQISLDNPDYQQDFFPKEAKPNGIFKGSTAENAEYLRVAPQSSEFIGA

With `CN(C)c1cc2c(Nc3ccc4c(cnn4Cc4ccccc4)c3)ncnc2cn1` [Example 2, N 4-(1-Benzyl-1H-indazol-5-yl)-N6,N6-dimethyl-pyrido[3,4-d]pyrimidine-4.6-diamine], the IC50 with HB4a ras cells (Homo sapiens, HB4a, 96 h) is 17000 nM; with N87 cells (Homo sapiens, 96 h), 240 nM; in the assay with BT474 cells (Homo sapiens, BT-474, 96 h), 140 nM; in the assay with HN5 cells, 300 nM; in [1], 20 nM; in the assay on HB4a erbB-2 cells (Homo sapiens, HB4a, 96 h), 110 nM. In addition, the IC50 stood at 380 nM with Calu3 cells (Homo sapiens, Calu-3, 96 h) and 19 nM in [2].
As for `CN(CCO)c1cc2c(Nc3ccc4c(cnn4Cc4ccccc4)c3)ncnc2cn1` [Example 3], the IC50 in the assay with HB4a ras cells (setting [4]) turned out to be 33000 nM; in assay [1] it was 23 nM; in the assay with HB4a erbB-2 cells (setting [4]), 140 nM; with Calu3 cells (setting [5]) it was 1800 nM; in [2], 7 nM.
As to `CN(C)c1cc2c(Nc3ccc4nc(Cc5ccccc5)[nH]c4c3)ncnc2cn1` [Example 7, N4-(2-Benzyl-1H-benzimidazol-5-yl)-N6,N6-dimethyl-pyrido[3,4-d]pyrimidine-4,6-diamine], the IC50 in the assay with HB4a ras cells (setting [4]) is 19000 nM; with BT474 cells (setting [6]), 610 nM; in [1] it was 21 nM; in the assay with HB4a erbB-2 cells (setting [4]), 1900 nM; in the assay with Calu3 cells (setting [5]) it was 8000 nM; in assay [2], 7 nM.
In the case of `NC(=O)[C@@H]1CCCN1Cc1ccc(-c2cc3c(Nc4ccc5c(cnn5Cc5ccccc5)c4)ncnc3cn2)o1` [Example 10, (2S)1-(5-(4-(1-Benzyl-1H-indazol-5-ylamino)-6-pydrido[3,4-d]pyrimidin-6-yl)-furan-2-ylmethyl)-pyrrolidine-2-carboxylic Acid Amide Hydrochloride], the IC50 in the assay with HB4a ras cells (setting [4]) is 21000 nM; with N87 cells (setting [7]) it was 2 nM; in the assay on BT474 cells (setting [6]), 2 nM; in the assay with HN5 cells (setting [8]) it was 130 nM; in assay [1], 10 nM; in the assay on HB4a erbB-2 cells (setting [4]), 71 nM. Besides, the IC50 in the assay on Calu3 cells (setting [5]) was determined as 160 nM; in assay [2], 6 nM.
As for `Cn1cncc1-c1cc2c(Nc3ccc4c(cnn4Cc4ccccc4)c3)ncnc2cn1` [Example 11, (1-Benzyl-1H-indazol-5-yl)-(6-(3-methyl-3H-imidazol-4-yl)-pyrido[3,4-d]pyrimidin-4-yl)-amine], the IC50 stood at 3800 nM in the assay on HB4a ras cells (setting [4]); 15 nM in [3]; 370 nM with N87 cells (setting [7]); 1400 nM in the assay on BT474 cells (setting [6]); 1400 nM in the assay on HN5 cells (setting [8]); 55 nM in assay [1]. The results for the IC50 (with HB4a erbB-2 cells (setting [4]); in the assay on Calu3 cells (setting [5]); in assay [2]) were 1400 nM, 1200 nM and 9 nM, respectively.
With `CN(C)c1cc2c(Nc3ccc4c(cnn4Cc4cccc(F)c4)c3)ncnc2cn1` [Example 16, N4-(1-(3-Fluoro-benzyl)-1H-indazol-5-yl)-N6,N6-dimethyl-pyrido[3,4-d]pyrimidine-4.6-diamine Hydrochloride], the IC50 in the assay on HB4a ras cells (setting [4]) amounted to 11000 nM; in the assay with N87 cells (setting [7]) it was 120 nM; in the assay on BT474 cells (setting [6]), 1 nM; in the assay on HN5 cells (setting [8]) it was 81 nM; in assay [1], 96 nM; in the assay on HB4a erbB-2 cells (setting [4]), 44 nM. Also, the IC50 in the assay on Calu3 cells (setting [5]) turned out to be 180 nM; in assay [2], 9 nM.
For `CN(C)c1cc2c(Nc3ccc4c(cnn4Cc4ccc(F)cc4)c3)ncnc2cn1` [Example 17, N4-(4-Fluoro-benzyl)-1H-indazol-5-yl)-N6,N6-dimethyl-pyrido[3,4-d]pyrimidine-4,6-diamine Hydrochloride], the IC50 with HB4a ras cells (setting [8]) was 7600 nM; in the assay on BT474 cells (setting [8]) it was 550 nM; with HB4a erbB-2 cells (setting [8]) it was 490 nM; in the assay on Calu3 cells (setting [8]) it was 7000 nM; in [2] it was 250 nM.
Consider `c1ccc(Cn2ncc3cc(Nc4ncnc5cnc(N6CCCC6)cc45)ccc32)cc1` [Example 24, (1-Benzyl-1H-indazol-5-yl)-(6-pyrrolidin-1-yl-pyrido[3,4-d]pyrimidin-4-yl)-amine], for which the IC50 in the assay with HB4a ras cells (setting [4]) worked out at 50000 nM; in the assay with BT474 cells (setting [6]), 460 nM; in the assay on HN5 cells (setting [8]), 900 nM; in assay [1], 140 nM; in the assay on HB4a erbB-2 cells (setting [4]), 810 nM; in assay [2] it was 20 nM.
Consider `c1ccc(Cn2ncc3cc(Nc4ncnc5cnc(N6CCCCC6)cc45)ccc32)cc1` [Example 25], for which the IC50 is above 50000 nM in the assay with HB4a ras cells (setting [8]); 380 nM in assay [3]; 940 nM with N87 cells (setting [8]); 270 nM in the assay with BT474 cells (setting [8]); 570 nM in assay [1]; 480 nM in the assay with HB4a erbB-2 cells (setting [8]). The IC50 in assay [2] came to 60 nM.
Turning to `Cc1nnc(-c2cc3c(Nc4ccc5c(cnn5Cc5ccccc5)c4)ncnc3cn2)o1` [Example 29, (1-Benzyl-1H-indazol-5-yl)-(6-(5-methyl-1,3,4-oxadiazol-2-yl)-pyrido[3,4-d]pyrimidin-4-yl)-amine Hydrochloride], the IC50 in the assay on HB4a ras cells (setting [4]) turned out to be 29000 nM; in assay [3], 2 nM; in the assay on N87 cells (setting [7]), 10000 nM; in the assay with BT474 cells (setting [6]), 11000 nM; in assay [1] it was 5500 nM; in the assay on HB4a erbB-2 cells (setting [4]), 5200 nM. Further, in assay [2], the IC50 turned out to be 2 nM.
As to `CN1CCN(c2cc3c(Nc4ccc5c(cnn5Cc5ccccc5)c4)ncnc3cn2)CC1` [Example 32, (1-Benzyl-1H-indazol-5-yl)-(6-(4-methyl-piperazin-1-yl)-pyrido[3,4-d]pyrimidin-4-yl)-amine], the IC50 with HB4a ras cells (setting [4]) was found to be 8800 nM; in the assay with N87 cells (setting [7]), 600 nM; in the assay on BT474 cells (setting [6]), 1000 nM; with HN5 cells (setting [8]), 4200 nM; in [1], 140 nM; in the assay with HB4a erbB-2 cells (setting [4]) it was 100 nM. Further, the figures for the IC50 (in the assay on Calu3 cells (setting [5]); in assay [2]) were 8200 nM and 55 nM, respectively.
As for `CS(=O)(=O)CCNCc1ccc(-c2cc3c(Nc4ccc5c(cnn5Cc5ccccc5)c4)ncnc3cn2)o1` [Example 34, (1-Benzyl-1H-indazol-5-yl)-(6-(5-((2-methanesuphonyl-ethylamino)-methyl)-furan-2-yl)-pyrido-[3,4-d]pyrimidin-4-yl)-amine Hydrochloride], the IC50 with HB4a ras cells (setting [4]) was 17000 nM; in the assay on N87 cells (setting [7]) it was 190 nM; in the assay with BT474 cells (setting [6]) it was 2 nM; in the assay with HN5 cells (setting [8]), 190 nM; in assay [1], 230 nM; in the assay with HB4a erbB-2 cells (setting [4]), 70 nM. For the same molecule, the IC50 in the assay on Calu3 cells (setting [5]) is 1300 nM; in [2], 15 nM.
In the case of `CNc1cc2c(Nc3ccc4c(cnn4Cc4ccccc4)c3)ncnc2cn1` [Example 37, N4-(1-Benzyl-1H-indazol-5-yl)-N6-methyl-pyrido[3,4-d]pyrimidine-4,6diamine], the IC50 amounted to 17000 nM in the assay with HB4a ras cells (setting [4]); 30 nM in assay [3]; 2200 nM in the assay on N87 cells (setting [7]); 1100 nM in the assay with BT474 cells (setting [6]); 2000 nM with HN5 cells (setting [8]); 180 nM in assay [1]. Moreover, the IC50 in the assay on HB4a erbB-2 cells (setting [4]) is 520 nM; with Calu3 cells (setting [5]), 3700 nM; in assay [2] it was 65 nM.
